US12116364B2, “Heteroaryl compounds and uses thereof” (APRINOIA THERAPEUTICS INC., priority 2018, dated 2024)

What was measured:
[1] = system: tau aggregates (tangles/threads) in temporal cortex sections of an AD brain; assay: Histological examination by fluorescence staining of AD brain sections; format: binding, human; settings: 0.001% (W/V) compound in 50% ethanol, 30 min, relative to PBB3; for Fluorescent binding Tangle: score for tangles; for Fluorescent binding Thread: score for threads
Protocol: The fluorescence binding assessment was performed as reported previously^1. For fluorescence labeling with PBB3 and test compounds, deparaffinized temporal cortex sections of an AD brain were incubated in 50% ethanol containing 0.001% (W/V) of PBB3 or test compound at room temperature for 30 min. The samples were rinsed with 50% ethanol for 5 min, dipped into distilled water twice for 3 min, and mounted in non-fluorescent mounting media ([…]; Vector Laboratories). Fluorescence images were captured using a DM4000 microscope (Leica) equipped with a custom filter cube for PBB3 (excitation band-pass at 391-437 nm and suppression low-pass with 458 nm cutoff).

[2] = target: recombinant tau proteins (human Tau, heparin-fiberized) (Homo sapiens, UniProt P10636); assay: Fluorescence quantitative Tau binding assay in vitro; settings: 0.04 uM fiberized recombinant tau, 30 mM Tris pH 7.5, 1 h, fluorometric saturation curve
Protocol: Expression and Purification of Human Tau Protein
• pET41a-Tau wild type • One Shot® BL21(DE3) Chemically Competent E. coli (Invitrogen, C600003) • Kanamycin sulfate (Sangon Biotech, A506636) • IPTG (Sangon Biotech, A100487) • Pipes buffer (100 mM Pipes, pH6.8, 1 mM EGTA, 1 mM MgSO4) • Hepes buffer (25 mM Hepes, pH7.2, 0.1 mM EDTA, 0.5 mM DTT, 100 mM NaCl) • Q-Sepharose Fast Flow column (GE Healthcare, 17-0510-01) • SP-Sepharose Fast Flow column (GE Healthcare, 17-0729-01) Procedures: Protein Expression: • Step 1: Transform 1 uL expression plasmid pET41a-tau wt into one One Shot® BL21(DE3) Chemically Competent E. coli, on ice 30 min. • Step 2: 42° C. heat shock 90 second and on ice 2 min, 37° C. recovery for 30 min, Plate small amount on LB(Kan+) agar plate incubate overnight at 37° C. • Step 3: Pick and resuspend a single colony in 200 mL liquid culture with 50 ug/mL Kanamycin to produce a starter culture. Inoculate starter culture and shake 200 rpm overnight at 37° C. • Step 4: Add 100× dilution Starter into fresh culture medium (Kan+) shake 200 rpm at 37° C. until OD600=0.8. • Step 5: Add IPTG (final conc. 1 mM) and express protein for 3 hr. • Step 6: Collect cell pellet and store at −80° C. for purification. Protein Purification: • Step 1: Cell pellet was resuspended in Pipes buffer. • Step 2: Sonication and centrifugation (15,000 rpm, 15 min at 4° C. • Step 3: The supernatant was placed in a boiling water bath for 20 min and subsequently centrifuged. The heat-stable proteins in the supernatant were loaded onto a Q-Sepharose Fast Flow column (20 mL) • Step 4: The flow through containing tau was loaded onto SP-Sepharose Fast Flow column (10 mL), eluted with Pipes buffer containing 0.2M NaCl. • Step 6: Fractions containing tau were pooled, concentrated and dialyzed against Hepes buffer, stored at −80° C. • Step 7: Reload SP-Flow through into Q-Sepharose Fast Flow column (20 mL) and SP-Sepharose Fast Flow column (10 mL) again, eluted with Pipes buffer containing 0.2M NaCl. • Step 8: Fractions containing tau were pooled, concentrated and dialyzed against Hepes buffer, stored at −80° C. Repeat step 6-7 twice, Collect all above all elution product and concentrated. Biological Assays Fluorescence Quantitative Tau Binding Assay In Vitro
2 uM of recombinant tau proteins and 15 uM of heparin were fiberized in 30 mM Tris (pH 7.5) buffer by overnight incubation at 37° C. 0.04 uM of recombinant tau proteins which was diluted in 30 mM Tris buffer (pH 7.5) was then reacted with test compounds (containing 1% DMSO) for 1 h. Regarding the fluorometric data, the binding saturation curve was created and the parameter estimation method was conducted using Prism software (GraphPad). Kd values were determined for each of test compounds. Table A lists Kd values of exemplary test compounds.

[3] = target: [11C]PBB3 binding sites (tau aggregates) in temporal cortex homogenates of an Alzheimer's disease patient (Homo sapiens, UniProt P10636); assay: Fluorescence competitive binding assay in vitro ([11C]PBB3 displacement in Alzheimer's disease temporal cortex homogenates); settings: 5 nM [11C]PBB3, AD temporal cortex homogenate (100 μg tissue), 30 min, room temperature
Protocol: Fluorescence competitive binding assay in vitro was performed as reported previously1. Frozen tissues derived from the temporal cortex of an Alzheimer's disease patient was homogenized in 50 mM Tris-HCl buffer, pH 7.4, containing protease inhibitor cocktail (cOmplete™, EDTA-free; Roche), and stored at −80° C. pending analyses. To assay radioligand binding with homologous or heterologous blockade, these homogenates (100 μg tissue) were incubated with 5 nM [11C]PBB3 (molar radioactivity: 100-150 GBq/μmol) in the absence or presence of unlabeled PBB3 at varying concentrations ranging from 10-11-106 M in Tris-HCl buffer containing 10% ethanol, pH 7.4, for 30 min at room temperature. Non-specific binding of [11C]PBB3 was determined in the presence of 5×10^−7 M PBB3. Samples were run once only and specific radioligand binding was determined as pmol/g tissue. Inhibition constant (Ki) and percentage of displacement were determined by using non-linear regression to fit a concentration-binding plot to one-site and two-site binding models derived from the Cheng-Prusoff equation with GraphPad Prism version 6.0 (GraphPad Software), followed by F-test for model selection. In a one-site homologous blockade model, dissociation constant (Kd) was calculated from homologous competitive binding using this function: Kd=Ki=IC50−Radioligand
where IC50 and [Radioligand] stand for the concentration of the competitor inducing 50% inhibition and radioligand concentration, respectively. Experiments with [^11C]PBB3 and unlabeled PBB3 were performed in a dimly lit condition to avoid photoconversion of the compounds. Table B lists Ki values of exemplary test compounds.

Sequence of [11C]PBB3 binding sites (tau aggregates) in temporal cortex homogenates of an Alzheimer's disease patient (P10636 623-695 limits assumed): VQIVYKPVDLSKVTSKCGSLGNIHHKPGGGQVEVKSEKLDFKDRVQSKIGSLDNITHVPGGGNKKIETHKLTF
Sequence of recombinant tau proteins (human Tau, heparin-fiberized) (P10636 whole entry): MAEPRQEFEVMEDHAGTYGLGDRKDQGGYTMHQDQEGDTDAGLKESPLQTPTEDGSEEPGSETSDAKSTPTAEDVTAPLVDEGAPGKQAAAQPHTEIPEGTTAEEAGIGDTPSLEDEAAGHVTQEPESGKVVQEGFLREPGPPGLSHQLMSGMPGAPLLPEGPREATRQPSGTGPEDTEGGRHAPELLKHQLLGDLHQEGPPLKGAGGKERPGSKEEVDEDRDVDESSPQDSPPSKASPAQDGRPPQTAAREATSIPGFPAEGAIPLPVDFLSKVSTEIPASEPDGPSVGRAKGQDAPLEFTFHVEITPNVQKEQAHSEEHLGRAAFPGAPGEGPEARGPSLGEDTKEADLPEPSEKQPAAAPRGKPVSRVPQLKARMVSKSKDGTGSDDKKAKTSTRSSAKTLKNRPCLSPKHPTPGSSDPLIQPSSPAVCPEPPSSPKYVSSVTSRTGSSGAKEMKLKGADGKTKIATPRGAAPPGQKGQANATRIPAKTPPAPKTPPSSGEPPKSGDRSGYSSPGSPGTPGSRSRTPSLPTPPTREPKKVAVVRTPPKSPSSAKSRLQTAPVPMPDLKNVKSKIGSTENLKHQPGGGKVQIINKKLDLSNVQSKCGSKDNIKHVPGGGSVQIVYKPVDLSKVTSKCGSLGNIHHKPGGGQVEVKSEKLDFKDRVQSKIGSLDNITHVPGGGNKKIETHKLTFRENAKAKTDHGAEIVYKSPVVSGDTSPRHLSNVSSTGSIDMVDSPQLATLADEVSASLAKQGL

Fluorescent binding Tangle [1] | Fluorescent binding Thread [1] | Kd [2] [nM] | Ki [3] [nM] | SMILES
2.5/2.5 | 2.5/2.5 | 3570 | 7.5 | CNc1ccc(-c2ccc(-c3nc4ccc(NCC(O)CF)cc4s3)nc2)cn1 (stereo not shown) [Compound V, 1-Fluoranyl-3-[[2-[5-[6-(methylamino)pyridin-3-yl]pyridin-2-yl]-1,3-benzothiazol-6-yl]amino]propan-2-ol]
2.5/2.5 | 2.5/2.5 | 2510 | 140 | CNc1ccc(-c2cnc(-c3cc4ccncc4[nH]3)cc2F)cn1 [Compound T, 5-[4-Fluoranyl-6-(1H-pyrrolo[2,3-c]pyridin-2-yl)pyridin-3-yl]-N-methyl-pyridin-2-amine]
0.5 | 0 | 260 | 20 | CNc1ccc(-c2ccc(-c3cn4cc(OCC(O)CF)ccc4n3)cc2)cn1 (stereo not shown) [Compound N, 1-Fluoro-3-(2-(4-(6-(methylamino)pyridin-3-yl)phenyl)imidazo[1,2-a]pyridin-6-yloxy)propan-2-ol]
3/3 | 3/3 | 1820 | 15 | CNc1ccc(-c2cc(F)c(-c3cc4ccncc4[nH]3)cn2)cn1 [Compound R, 4-Fluoro-N-methyl-5-(1H-pyrrolo[2,3-c]pyridin-2-yl)-2,3′-bipyridin-6′-amine]
2 | 0.5 | 280 | 10 | CN(C)c1ccc(-c2ccc(-c3cc4ccn(CC(O)CF)cc-4n3)cc2)cn1 (stereo not shown) [Compound G, 1-(2-(4-(6-(Dimethylamino)pyridin-3-yl)phenyl)-6H-pyrrolo[2,3-c]pyridin-6-yl)-3-fluoropropan-2-ol]
3/3 | 3/3 | 1450 | 5 | CNc1ncc(-c2cc(F)c(-c3nc4ccc(N)cc4s3)cn2)cn1 [Compound Z, 2-(4-Fluoro-6-(2-(methylamino)pyrimidin-5-yl)pyridin-3-yl)benzo[d]thiazol-6-amine]
3/3 | 3/3 | 690 | 1 | CNc1ccc(-c2ccc(-c3cc4ccncc4[nH]3)cc2)c(F)n1 [Compound D, 5-(4-(1H-Pyrrolo[2,3-c]pyridin-2-yl)phenyl)-6-fluoro-N-methylpyridin-2-amine]
– | – | 1510 | – | COc1ccc2nc(-c3ccc(-c4ccc(N(C)C)nc4)nc3F)cn2c1 [Compound U, 6-Fluoro-5-(6-methoxyimidazo[1,2-a]pyridin-2-yl)-N,N-dimethyl-2,3′-bipyridin-6′-amine]
– | – | 90 | – | Nc1ccc(-c2ccc(-c3nc4ccncc4o3)cc2)cn1 [Compound H, 5-(4-(Oxazolo[5,4-c]pyridin-2-yl)phenyl)pyridin-2-amine]
– | – | 3500 | – | CN(C)c1ccc(-c2ccc(-c3nc4ccncc4n3CCF)cc2)cn1 [Compound K, 5-[4-[3-(2-fluoranylethyl)imidazo[4,5-c]pyridin-2-yl]phenyl]-N,N-dimethyl-pyridin-2-amine]
– | – | 170 | – | CN(C)c1ccc(-c2ccc(-c3nc4ccc(NCC(O)CF)cc4s3)c(F)n2)cn1 (stereo not shown) [Compound X, 1-[[2-[6-[6-(dimethylamino)pyridin-3-yl]-2-fluoranyl-pyridin-3-yl]-1,3-benzothiazol-6-yl]amino]-3-fluoranyl-propan-2-ol]
– | – | > 10000 | – | CNc1ncc(-c2ccc(-c3nc4ccc(N)cc4s3)c(F)n2)cn1 [Compound Y, 2-[2-Fluoranyl-6-[2-(methylamino)pyrimidin-5-yl]pyridin-3-yl]-1,3-benzothiazol-6-amine]
– | – | 340 | – | COc1ccc(-c2ccc(-c3cc4ccn(CCO)cc-4n3)cc2)cc1 [Compound F, 2-(2-(4′-Methoxybiphenyl-4-yl)-6H-pyrrolo[2,3-c]pyridine-6-yl)ethanol]
